Experimental data reported in patent US10106515B2, “1-(cyclopent-2-en-1-yl)-3-(2-hydroxy-3-(arylsulfonyl)phenyl)urea derivatives as CXCR2 inhibitors” (GLAXOSMITHKLINE INTELLECTUAL PROPERTY DEVELOPMENT LIMITED, priority 2014, dated 2018).
Structures can show the parent of a compound that is named as a salt.

The compounds below were run against T1, recombinant human CXCR2 (Homo sapiens, UniProt P25025) (assay: CXCR2 Tango assay). Conditions: mean pIC50 of multiple test results; stimulated with 80 nM hCXCL1; reporter gene blue/green emission ratio; read-out: pIC50 (CXCR2 Tango assay) (converted).
T1 construct: TEV protease site; Gal4-VP16 transcription factor
T1 sequence (P25025 1-360): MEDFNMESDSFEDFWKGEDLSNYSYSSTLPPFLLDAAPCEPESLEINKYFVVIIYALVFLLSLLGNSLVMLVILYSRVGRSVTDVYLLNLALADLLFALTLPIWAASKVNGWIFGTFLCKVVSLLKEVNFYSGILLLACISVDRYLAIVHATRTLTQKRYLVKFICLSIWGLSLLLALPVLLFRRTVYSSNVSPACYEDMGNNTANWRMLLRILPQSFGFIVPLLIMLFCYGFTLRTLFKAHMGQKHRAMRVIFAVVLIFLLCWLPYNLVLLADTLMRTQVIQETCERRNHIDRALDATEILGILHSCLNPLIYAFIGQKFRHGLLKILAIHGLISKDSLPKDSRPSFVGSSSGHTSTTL
Type: cell-based
From the text: The assay measures ligand-induced activation of the receptor CXCR2 in a stable cell line containing the recombinant human CXCR2 linked to a TEV protease site and a Gal4-VP16 transcription factor (Invitrogen). Ligand binding to the receptor results in the recruitment of arrestin proteins (tagged with protease) to the receptor and triggers the release of a tethered transcription factor. The transcription factor enters the nucleus and activates the transcription of the reporter gene. The ability of a compound to inhibit CXCR2 activation is indirectly assessed by measuring the reporter gene activity.
A vial of cryopreserved cells was removed from liquid nitrogen and rapidly thawed in a water bath at 37° C. with gentle agitation. The contents of the vial were transferred drop-wise into Thawing Medium in a sterile 15 ml conical tube and then centrifuged at 1000 rpm for 4-5 min. Then the cell pellets were resuspended in Assay Medium at a density of ˜200,000 cells/ml. All test compounds were dissolved in DMSO at a concentration of 10 mM and were prepared in 100% DMSO to provide 10 point dose response curves. A reference CXCR2 antagonist was added to wells in row 2, columns 1-5 & 7-11. Exemplified compounds 1-4, 7, 8-10, 13-22, 24-26, 28-30, 32, 33, 36, 37, 40, 42-44. 95-110, 115-118, 120, 121, 125, 126, 129-134, 137, 138, 140, 142, 147-149, 153-157, 159-162, 163-166, 168, 170, 172, 174-180 and 202 were tested using the CXCR2 antagonist sodium 3-chloro-6-(3-(2,3-dichlorophenyl)ureido)-2-sulfamoylphenolate as reference compound (Reference Compound 1) (published International patent application WO2002/079122). […] Test compounds were added to wells in row 2, columns 13-17 & 19-23 and rows 3-15, columns 1-5 & 7-11/13-17 & 19-23 (columns 6 and 18 as positive controls and un-stimulated controls respectively; columns 12 and 24 as cell-free control). Compounds in solution were added to the assay plate (Greiner 781090) using an Echo (Labcyte) concentration-response program (50 nl/well). The cell-free, un-stimulated and positive controls were loaded with 50 nl/well pure DMSO to ensure that the DMSO concentration was constant across the plate for all assays. Using Multi-drop Combi (Thermo) with standard cassette, 50 μl of Assay Medium was added to each well in the cell-free controls (columns 12 and 24); 50 μl of the cell suspension without hCXCL1 (a CXCR2 ligand) was added to each well in column 18 of the plate (˜10,000 cells per well); and 50 μl of the cell suspension with 80 nM hCXCL1 was added to the rest of wells of the plate (˜10,000 cells per well). The cells were incubated overnight at 37° C./5% CO2. 10 μl of 6× substrate mixture (LiveBLAzer™-FRET B/G substrate (CCF4-AM) Cat # K1096 from Invitrogen, Inc.) was added to each well using Multi-drop Combi (Thermo) with small-tube cassette and the plates incubated at room temperature for 2 h in the dark. The plate was finally read on EnVision using one excitation channel (409 nm) and two emission channels (460 nm and 530 nm).
The blue/green emission ratio (460 nm/530 nm) was calculated for each well, by dividing the background-subtracted Blue emission values by the background-subtracted Green emission values. The dose response curve was based on sigmoidal dose-response model. All ratio data was normalized based upon the maximum emission ratio of positive control (hCXCL1) and minimum emission ratio of negative control (DMSO) on each plate. The intrinsic activity (IA) of each compound would be the normalized percentage of its maximum response after curve fitting.
All exemplified compounds (except for Compounds 203 and 204) were tested in the CXCR2 Tango assay or a similar assay described above. The data mentioned below represents a mean pIC 50 value of multiple test results. It is understood that the data illustrated below may have reasonable variation depending on the specific conditions and procedures used by the person conducting the testing.

Q: Which IC50 does the source give for `CC1=CCC[C@H]1NC(=O)Nc1ccc(Cl)c(S(=O)(=O)N2CC(F)C2)c1O` [Compound 86, (R)-1-(4-chloro-3-((3-fluoroazetidin-1-yl)sulfonyl)-2-hydroxyphenyl)-3-(2-methylcyclopent-2-en-1-yl)urea trifluoroacetic acid salt] here?
A: ≤ 10 nM

Q: How did the IC50 turn out when `CC1=CCC[C@H]1NC(=O)Nc1ccc(Cl)c(S(=O)(=O)N2CC[C@@H](F)C2)c1O` [Compound 87, 1-(4-chloro-3-(((R)-3-fluoropyrrolidin-1-yl)sulfonyl)-2-hydroxyphenyl)-3-((R)-2-methylcyclopent-2-en-1-yl)urea, trifluoroacetic acid salt] was run?
A: ≤ 10 nM

Q: `CC1=CCC[C@H]1NC(=O)Nc1ccc(Cl)c(S(=O)(=O)N2CCC(F)(F)C2)c1O` [Compound 88, (R)-1-(4-chloro-3-((3,3-difluoropyrrolidin-1-yl)sulfonyl)-2-hydroxyphenyl)-3-(2-methylcyclopent-2-en-1-yl)urea] was tested. Which IC50 did it give?
A: ≤ 1 nM

Q: `CC1=CCC[C@H]1NC(=O)Nc1ccc(Cl)c(S(=O)(=O)N2CCC(O)CC2)c1O` [Compound 89, (R)-1-(4-chloro-2-hydroxy-3-((4-hydroxypiperidin-1-yl)sulfonyl)phenyl)-3-(2-methylcyclopent-2-en-1-yl)urea] was tested. Which IC50 did it give?
A: ≤ 1 nM

Q: `CC1=CCC[C@H]1NC(=O)Nc1ccc(Cl)c(S(=O)(=O)N2CCCCC2)c1O` [Compound 91, (R)-1-(4-chloro-2-hydroxy-3-(piperidin-1-ylsulfonyl)phenyl)-3-(2-methylcyclopent-2-en-1-yl)urea trifluoroacetic acid salt] was tested. Which IC50 did it give?
A: ≤ 1 nM

Q: Which IC50 does the source give for `CC1=CCCC1NC(=O)Nc1ccc(Cl)c(S(=O)(=O)[C@H]2C[C@@H](O)C2)c1O` (stereo partly drawn) [Compound 95, 1-(4-chloro-2-hydroxy-3-((cis-3-hydroxycyclobutyl)sulfonyl)phenyl)-3-(2-methylcyclopent-2-en-1-yl)urea] here?
A: ≤ 1 nM

Q: Which IC50 does the source give for `CC1=CCCC1NC(=O)Nc1ccc(Cl)c(S(=O)(=O)[C@H]2C[C@H](N3CCCC3)C2)c1O` (stereo partly shown) [Compound 96, 1-(4-chloro-2-hydroxy-3-(((1r,3r)-3-(pyrrolidin-1-yl)cyclobutyl)sul-fonyl)phenyl)-3-(2-methylcyclopent-2-en-1-yl)urea, trifluoroacetic acid salt] here?
A: ≤ 10 nM

Q: For `CC1=CCCC1NC(=O)Nc1ccc(Cl)c(S(=O)(=O)[C@H]2CC[C@H](N3CCC3)CC2)c1O` (stereo partly shown) [Compound 97, 1-(3-(((1r,4r)-4-(azetidin-1-yl)cyclohexyl)sulfonyl)-4-chloro-2-hydroxyphenyl)-3-(2-methylcyclopent-2-en-1-yl)urea trifluoroacetic acid salt], which IC50 is on record?
A: ≤ 10 nM

Q: `CC1=CCCC1NC(=O)Nc1ccc(Cl)c(S(=O)(=O)[C@H]2CC[C@H](N3CCCC3)CC2)c1O` (stereo partly drawn) [Compound 98, 1-(4-chloro-2-hydroxy-3-(((1R,4R)-4-(pyrrolidin-1-yl)cyclohexyl)sulfonyl)phenyl)-3-(2-methylcyclopent-2-en-1-yl)urea, trifluoroacetic acid salt] was tested. Which IC50 did it give?
A: ≤ 1 nM

Q: For `CC1=CCCC1NC(=O)Nc1ccc(Cl)c(S(=O)(=O)[C@H]2CCOC2)c1O` (stereo partly drawn) [Compound 99, 1-(4-chloro-2-hydroxy-3-(((S)-tetrahydrofuran-3-yl)sulfonyl)phenyl)-3-(2-methylcyclopent-2-en-1-yl)urea], which IC50 is on record?
A: ≤ 10 nM

Q: With `CC1=CCCC1NC(=O)Nc1ccc(Cl)c(S(=O)(=O)C(C)(C)C)c1O` (stereo not shown) [Compound 100, 1-(3-(tert-butylsulfonyl)-4-chloro-2-hydroxyphenyl)-3-(2-methylcyclopent-2-en-1-yl)urea] as the compound, how does the IC50 read?
A: ≤ 10 nM

Q: How did the IC50 turn out when `CC1=CCCC1NC(=O)Nc1ccc(Cl)c(S(=O)(=O)C(C)(C)C(F)(F)F)c1O` (stereo not shown) [Compound 101, 1-(4-chloro-2-hydroxy-3-((1,1,1-trifluoro-2-methylpropan-2-yl)sulfonyl)phenyl)-3-(2-methylcyclopent-2-en-1-yl)urea] was run?
A: ≤ 1 nM

Q: With `CC1=CCCC1NC(=O)Nc1ccc(Cl)c(S(=O)(=O)C(C)(C)c2ccccn2)c1O` (stereo not shown) [Compound 102, 1-(4-chloro-2-hydroxy-3-((2-(pyridin-2-yl)propan-2-yl)sulfonyl)phenyl)-3-(2-methylcyclopent-2-en-1-yl)urea, trifluoroacetic acid salt] as the compound, how does the IC50 read?
A: ≤ 10 nM

Q: `CC1=CCCC1NC(=O)Nc1ccc(Cl)c(S(=O)(=O)C(C)(C)C2CCOCC2)c1O` (stereo not shown) [Compound 103, 1-(4-chloro-2-hydroxy-3-((2-(tetrahydro-2H-pyran-4-yl)propan-2-yl)sulfonyl)phenyl)-3-(2-methylcyclopent-2-en-1-yl)urea] was tested. Which IC50 did it give?
A: ≤ 10 nM

Q: For `CC1=CCCC1NC(=O)Nc1ccc(Cl)c(S(=O)(=O)C(C)(C)F)c1O` (stereo not shown) [Compound 105, 1-(4-chloro-3-((2-fluoropropan-2-yl)sulfonyl)-2-hydroxyphenyl)-3-(2-methylcyclopent-2-en-1-yl)urea], which IC50 is on record?
A: ≤ 10 nM

Q: How did the IC50 turn out when `CC1=CCCC1NC(=O)Nc1ccc(Cl)c(S(=O)(=O)C(C)(F)F)c1O` (stereo not shown) [Compound 106, 1-(4-chloro-3-((1,1-difluoroethyl)sulfonyl)-2-hydroxyphenyl)-3-(2-methylcyclopent-2-en-1-yl)urea] was run?
A: ≤ 1 nM

Q: For `CC1=CCCC1NC(=O)Nc1ccc(Cl)c(S(=O)(=O)C2CCc3nccn3C2)c1O` (stereo not shown) [Compound 108, 1-(4-chloro-2-hydroxy-3-((5,6,7,8-etrahydroimidazo [1,2-a]pyridin-6-yl)sulfonyl)phenyl)-3-(2-methylcyclopent-2-en-1-yl)urea, trifluoroacetic acid salt], which IC50 is on record?
A: ≤ 10 nM

Q: With `CC1=CCCC1NC(=O)Nc1ccc(Cl)c(S(=O)(=O)C2CCN3CCCC3C2)c1O` (stereo not shown) [Compound 109, 1-(4-chloro-2-hydroxy-3-((octahydroindolizin-7-yl)sulfonyl)phenyl)-3-(2-methylcyclopent-2-en-1-yl)urea, trifluoroacetic acid salt] as the compound, how does the IC50 read?
A: ≤ 10 nM

Q: `CC1=CCCC1NC(=O)Nc1ccc(Cl)c(S(=O)(=O)N2CC(F)(F)C2)c1O` (stereo not shown) [Compound 111, 1-(4-chloro-3-((3,3-difluoroazetidin-1-yl)sulfonyl)-2-hydroxyphenyl)-3-(2-methylcyclopent-2-en-1-yl)urea] was tested. Which IC50 did it give?
A: ≤ 10 nM

Q: For `CC1=CCCC1NC(=O)Nc1ccc(Cl)c(S(=O)(=O)N2CC[C@@H](F)C2)c1O` (stereo partly drawn) [Compound 113, 1-(4-chloro-3-(((R)-3-fluoropyrrolidin-1-yl)sulfonyl)-2-hydroxyphenyl)-3-(2-methylcyclopent-2-en-1-yl)urea], which IC50 is on record?
A: ≤ 10 nM

Q: `CC1=CCCC1NC(=O)Nc1ccc(Cl)c(S(=O)(=O)N2CCC(F)(F)CC2)c1O` (stereo not shown) [Compound 115, 1-(4-chloro-3-((4,4-difluoropiperidin-1-yl)sulfonyl)-2-hydroxyphenyl)-3-(2-methylcyclopent-2-en-1-yl)urea] was tested. Which IC50 did it give?
A: ≤ 10 nM

Same assay, conditions: pIC50 (CXCR2 Tango assay), mean pIC50 of multiple test results; stimulated with 80 nM hCXCL1; reporter gene blue/green emission ratio

Q: `CC1=CCC[C@H]1NC(=O)Nc1ccc(Cl)c(S(=O)(=O)C2CCN(C3CCC3)CC2)c1O` [Compound 83, (R)-1-(4-chloro-3-((1-cyclobutylpiperidin-4-yl)sulfonyl)-2-hydroxyphenyl)-3-(2-methylcyclopent-2-en-1-yl)urea trifluoroacetic acid salt] was tested. Which IC50 did it give?
A: ≤ 1 nM
